Measurements from US8058475B2, “Substituted cyclohexylmethyl compounds” (Gruenenthal GmbH, priority 2005, dated 2011).
Like-named read-outs stand apart in the source and are kept apart here.

Target: human μ-opiate receptor (Homo sapiens, UniProt P35372)
Assay: Affinity for the human μ-opiate receptor ([3H]-naloxone displacement, SPA, CHO-K1 membrane preparation)
Type: binding
Conditions: for inhibition at 1 µM: read-out: μ-Opioid receptor, % inhibition [1 μM]; for Ki: read-out: μ-Opioid receptor, Ki
[1] = 1 μM test substance, inhibition of specific [3H]-naloxone binding

Chain of human μ-opiate receptor (P35372 whole entry): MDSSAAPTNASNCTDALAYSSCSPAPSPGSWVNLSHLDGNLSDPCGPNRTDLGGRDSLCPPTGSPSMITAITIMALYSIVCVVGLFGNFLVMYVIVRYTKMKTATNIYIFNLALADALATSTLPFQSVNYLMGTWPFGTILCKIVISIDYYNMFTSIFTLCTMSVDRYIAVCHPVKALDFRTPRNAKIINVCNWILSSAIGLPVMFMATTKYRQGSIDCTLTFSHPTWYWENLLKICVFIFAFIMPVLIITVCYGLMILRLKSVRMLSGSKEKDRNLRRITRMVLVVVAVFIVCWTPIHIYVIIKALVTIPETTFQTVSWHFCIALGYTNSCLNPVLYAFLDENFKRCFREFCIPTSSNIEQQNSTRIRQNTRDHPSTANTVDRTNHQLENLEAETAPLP

Which inhibition at 1 µM does the source give for CN(C)C(c1cccs1)C1CCC(CCNC(=O)c2ccc(F)cc2)CC1 (centres unmarked) [compound 426, N-{2-[4-(dimethylamino-thiophen-2-yl-methyl)-cyclohexyl]-ethyl}-4-fluoro-benzamide] here?
The inhibition at 1 µM was 99%.

What about the Ki of the same molecule?
The Ki was 5.8 nM.

Which results are given for CN(C)C(c1ccccc1)C1CCC(CCNC(=O)c2cccnc2Sc2ccc(Cl)cc2)CC1 (single isomer, unassigned) [compound 470, 2-(4-chloro-phenylsulfanyl)-N-{2-[4-(dimethylamino-phenyl-methyl)-cyclohexyl]-ethyl}-nicotinamide]?
inhibition at 1 µM: 91%; Ki: 71 nM

With CN(C)C(c1ccc(F)cc1)C1CCC(CNC(=O)c2csc3ccccc23)CC1 (centres unmarked) [compound 344, benzo[b]thiophene-3-carboxylic acid {4-[dimethylamino-(4-fluoro-phenyl)-methyl]-cyclohexylmethyl}-amide] as the molecule, how does the inhibition at 1 µM read?
The inhibition at 1 µM was 90%.

And the Ki?
Its Ki is 13 nM.

With CN(C)C(c1ccc(F)cc1)C1CCC(CCNC(=O)c2cccc(Cl)c2)CC1 (single isomer, unassigned) [compound 422, 3-chloro-N-(2-{4-[dimethylamino-(4-fluoro-phenyl)-methyl]-cyclohexyl}-ethyl)-benzamide] as the molecule, how does the inhibition at 1 µM read?
The inhibition at 1 µM was 83%.

And the Ki?
The Ki was 35 nM.

COc1cccc(OC)c1C(=O)NC1CCC(C(c2ccccc2)N(C)C)CC1 (centres unmarked) [compound 287, N-[4-(dimethylamino-phenyl-methyl)-cyclohexyl]-2,6-dimethoxy-benzamide] was tested. Which inhibition at 1 µM did it give?
Its inhibition at 1 µM is 71%.

And the Ki?
Its Ki is 150 nM.

With Cc1ccc(Oc2ncccc2C(=O)NCC2CCC(C(c3cccc(F)c3)N(C)C)CC2)cc1 (centres unmarked) [compound 337, N-{4-[dimethylamino-(3-fluoro-phenyl)-methyl]-cyclohexylmethyl}-2-p-tolyloxy-nicotinamide] as the molecule, how does the inhibition at 1 µM read?
Its inhibition at 1 µM is 92%.

Cc1oc(-c2ccccc2)cc1C(=O)NC1CCC(C(c2cccc(F)c2)N(C)C)CC1 (centres unmarked) [compound 266, 2-methyl-5-phenyl-furan-3-carboxylic acid {4-[dimethylamino-(3-fluoro-phenyl)-methyl]-cyclohexyl}-amide] was tested. Which inhibition at 1 µM did it give?
The inhibition at 1 µM was 78%.

And the Ki?
The Ki was 36 nM.

Which inhibition at 1 µM does the source give for Cc1cccc(C(=O)NCCC2CCC(C(c3cccs3)N(C)C)CC2)c1 (centres unmarked) [compound 430, N-{2-[4-(dimethylamino-thiophen-2-yl-methyl)-cyclohexyl]-ethyl}-3-methyl-benzamide] here?
Its inhibition at 1 µM is 101%.

What about the Ki of the same molecule?
Its Ki is 4.4 nM.

Which results are given for Cc1onc(-c2c(Cl)cccc2Cl)c1C(=O)NCCC1CCC(C(c2cccs2)N(C)C)CC1 (centres unmarked) [compound 469, 3-(2,6-dichloro-phenyl)-5-methyl-isoxazole-4-carboxylic acid {2-[4-(dimethylamino-thiophen-2-yl-methyl)-cyclohexyl]-ethyl}-amide]?
inhibition at 1 µM: 87%; Ki: 57 nM

Which results are given for CN(C)C(c1cccs1)C1CCC(NC(=O)c2csc(-c3ccc4c(c3)CCO4)n2)CC1 (centres unmarked) [compound 239, 2-(2,3-dihydro-benzofuran-5-yl)-thiazole-4-carboxylic acid [4-(dimethylamino-thiophen-2-yl-methyl)-cyclohexyl]-amide]?
inhibition at 1 µM: 82%; Ki: 80 nM

Which inhibition at 1 µM [1] does the source give for COc1cccc(CC2(O)CCC(C(c3cccc(F)c3)N(C)C)CC2)c1 (centres unmarked) [compound 156, 4-[dimethylamino-(3-fluoro-phenyl)-methyl]-1-(3-methoxy-benzyl)-cyclohexanol] here?
The inhibition at 1 µM was 73%.

What does the source list for CSc1ncccc1C(=O)NC1CCC(C(c2cccs2)N(C)C)CC1 (centres unmarked) [compound 208, N-[4-(dimethylamino-thiophen-2-yl-methyl)-cyclohexyl]-2-methylsulfanyl-nicotinamide]?
inhibition at 1 µM: 92%; Ki: 130 nM

How did the inhibition at 1 µM turn out when CC(=O)N(C(C)Cc1c[nH]c2ccccc12)C1CCC(C(c2ccccc2)N(C)C)CC1 (centres unmarked) [compound 178, N-(1-(1H-indol-3-yl)propan-2-yl)-N-(4-((dimethylamino)(phenyl)methyl)-cyclohexyl)acetamide] was run?
Its inhibition at 1 µM is 96%.

And the Ki?
Its Ki is 1.2 nM.

For CN(C)C(c1ccccc1)C1CCC(CCNC(=O)c2ccc([N+](=O)[O-])cc2)CC1 (centres unmarked) [compound 458, N-{2-[4-(dimethylamino-phenyl-methyl)-cyclohexyl]-ethyl}-4-nitro-benzamide], which inhibition at 1 µM is on record?
The inhibition at 1 µM was 93%.

What about the Ki of the same molecule?
Its Ki is 49 nM.

Which results are given for CN(C)C(c1cccs1)C1CCC(NC(=O)c2cccs2)CC1 (centres unmarked) [compound 193, thiophene-2-carboxylic acid [4-(dimethylamino-thiophen-2-yl-methyl)-cyclohexyl]-amide]?
inhibition at 1 µM: 96%; Ki: 23 nM

What does the source list for CN(C)C(c1ccccc1)C1CCC(CCNC(=O)c2cc(F)cc(F)c2)CC1 (centres unmarked) [compound 433, N-{2-[4-(dimethylamino-phenyl-methyl)-cyclohexyl]-ethyl}-3,5-difluoro-benzamide]?
inhibition at 1 µM: 89%; Ki: 3.8 nM

How did the inhibition at 1 µM [1] turn out when CN(C)C(c1ccc(Cl)cc1)C1CCC(O)(Cc2ccc(F)cc2)CC1 (centres unmarked) [compound 172, 4-[(4-chloro-phenyl)-dimethylamino-methyl]-1-(4-fluoro-benzyl)-cyclohexanol] was run?
The inhibition at 1 µM was 77%.

Which results are given for COc1cccc(C(=O)NCCC2CCC(C(c3ccc(F)cc3)N(C)C)CC2)c1 (centres unmarked) [compound 447, N-(2-{4-[dimethylamino-(4-fluoro-phenyl)-methyl]-cyclohexyl}-ethyl)-3-methoxy-benzamide]?
inhibition at 1 µM: 83%; Ki: 130 nM

Which results are given for CC(Oc1ccccc1)C(=O)NCC1CCC(C(c2cccs2)N(C)C)CC1 (centres unmarked) [compound 304, N-[4-(dimethylamino-thiophen-2-yl-methyl)-cyclohexylmethyl]-2-phenoxy-propionamide]?
inhibition at 1 µM: 99%; Ki: 15 nM

How did the “μ-Opioid receptor, % inhibition [1 μM]” value turn out when Cc1oc(-c2ccccc2)cc1C(=O)NCC1CCC(C(c2cccc(F)c2)N(C)C)CC1 (centres unmarked) [compound 373, 2-methyl-5-phenyl-furan-3-carboxylic acid {4-[dimethylamino-(3-fluoro-phenyl)-methyl]-cyclohexylmethyl}-amide] was run?
The value was 84%.

And the Ki?
Its Ki is 61 nM.

For Cc1cc(C2(O)CCC(C(c3ccccc3)N(C)C)CC2)ccc1F (centres unmarked) [compound 151, 4-(dimethylamino-phenyl-methyl)-1-(4-fluoro-3-methyl-phenyl)-cyclohexanol], which inhibition at 1 µM [1] is on record?
Its inhibition at 1 µM is 71%.

Which “μ-Opioid receptor, % inhibition [1 μM]” value does the source give for CC(Oc1ccccc1)C(=O)NC1CCC(C(c2cccc(F)c2)N(C)C)CC1 (single isomer, unassigned) [compound 222, N-{4-[dimethylamino-(3-fluoro-phenyl)-methyl]-cyclohexyl}-2-phenoxy-propionamide] here?
Its value is 88%.

And the Ki?
Its Ki is 20 nM.

Which results are given for CN(C)C(c1ccccc1)C1CCC(NC(=O)c2cncc(Br)c2)CC1 (centres unmarked) [compound 259, 5-bromo-N-[4-(dimethylamino-phenyl-methyl)-cyclohexyl]-nicotinamide]?
μ-Opioid receptor, % inhibition [1 μM]: 79%; Ki: 62 nM

CN(C)C(c1cccc(F)c1)C1CCC(NC(=O)Cc2ccccc2)CC1 (centres unmarked) [compound 240, N-{4-[dimethylamino-(3-fluoro-phenyl)-methyl]-cyclohexyl}-2-phenyl-acetamide] was tested. Which inhibition at 1 µM did it give?
Its inhibition at 1 µM is 82%.

What about the Ki of the same molecule?
Its Ki is 51 nM.

Which inhibition at 1 µM does the source give for COc1ccccc1C(=O)NCC1CCC(C(c2cccc(F)c2)N(C)C)CC1 (centres unmarked) [compound 368, N-{4-[dimethylamino-(3-fluoro-phenyl)-methyl]-cyclohexylmethyl}-2-methoxy-benzamide] here?
Its inhibition at 1 µM is 84%.

And the Ki?
The Ki was 34 nM.

How did the inhibition at 1 µM turn out when Cc1nc(-c2ccccc2)sc1C(=O)NC1CCC(C(c2ccccc2)N(C)C)CC1 (centres unmarked) [compound 238, 4-methyl-2-phenyl-thiazole-5-carboxylic acid [4-(dimethylamino-phenyl-methyl)-cyclohexyl]-amide] was run?
The inhibition at 1 µM was 83%.

What about the Ki of the same molecule?
The Ki was 38 nM.

COc1cccc(CC2(O)CCC(C(c3ccc(Cl)cc3)N(C)C)CC2)c1 (centres unmarked) [compound 173, 4-[(4-chloro-phenyl)-dimethylamino-methyl]-1-(3-methoxy-benzyl)-cyclohexanol] was tested. Which inhibition at 1 µM [1] did it give?
Its inhibition at 1 µM is 84%.

Which results are given for CN(C)C(c1ccccc1)C1CCC(CNC(=O)c2cncc(Br)c2)CC1 (centres unmarked) [compound 386, 5-bromo-N-[4-(dimethylamino-phenyl-methyl)-cyclohexylmethyl]-nicotinamide]?
inhibition at 1 µM: 82%; Ki: 100 nM

With CN(C)C(c1cccc(F)c1)C1CCC(CCNC(=O)c2cc(F)c(Cl)cc2Cl)CC1 (single isomer, unassigned) [compound 438, 2,4-dichloro-N-(2-{4-[dimethylamino-(3-fluoro-phenyl)-methyl]-cyclohexyl}-ethyl)-5-fluoro-benzamide] as the molecule, how does the inhibition at 1 µM read?
Its inhibition at 1 µM is 87%.

What about the Ki of the same molecule?
Its Ki is 100 nM.

CN(C)C(c1ccc(F)cc1)C1CCC(CNC(=O)C2(c3ccc(Cl)cc3)CCCC2)CC1 (centres unmarked) [compound 370, 1-(4-chloro-phenyl)-cyclopentane-carboxylic acid {4-[dimethylamino-(4-fluoro-phenyl)-methyl]-cyclohexylmethyl}-amide] was tested. Which inhibition at 1 µM did it give?
The inhibition at 1 µM was 84%.

What about the Ki of the same molecule?
The Ki was 81 nM.

How did the inhibition at 1 µM turn out when CCCc1ccc(C(=O)NCCC2CCC(C(c3cccs3)N(C)C)CC2)cc1 (centres unmarked) [compound 443, N-{2-[4-(dimethylamino-thiophen-2-yl-methyl)-cyclohexyl]-ethyl}-4-propyl-benzamide] was run?
The inhibition at 1 µM was 96%.

And the Ki?
Its Ki is 40 nM.

CN(C)C(c1ccccc1)C1CCC(NC(=O)c2c(F)ccc(F)c2F)CC1 (centres unmarked) [compound 244, N-[4-(dimethylamino-phenyl-methyl)-cyclohexyl]-2,3,6-trifluoro-benzamide] was tested. Which inhibition at 1 µM did it give?
Its inhibition at 1 µM is 82%.

What about the Ki of the same molecule?
The Ki was 30 nM.

What does the source list for CN(C)C(c1ccccc1)C1CCC(NC(=O)c2cncc(Br)c2)CC1 (centres unmarked) [compound 235, 5-bromo-N-[4-(dimethylamino-phenyl-methyl)-cyclohexyl]-nicotinamide]?
inhibition at 1 µM: 84%; Ki: 61 nM

For Cc1ccc(Oc2ncccc2C(=O)NCC2CCC(C(c3cccs3)N(C)C)CC2)cc1 (single isomer, unassigned) [compound 389, N-[4-(dimethylamino-thiophen-2-yl-methyl)-cyclohexylmethyl]-2-p-tolyloxy-nicotinamide], which inhibition at 1 µM is on record?
Its inhibition at 1 µM is 81%.

What about the Ki of the same molecule?
Its Ki is 58 nM.

Which “μ-Opioid receptor, % inhibition [1 μM]” value does the source give for CN(C)C(CCc1ccccc1)C1CCC(NC(=O)c2ccc(F)c(C(F)(F)F)c2)CC1 (single isomer, unassigned) [compound 227, N-[4-(1-dimethylamino-3-phenyl-propyl)-cyclohexyl]-4-fluoro-3-trifluoromethyl-benzamide] here?
The value was 87%.

And the Ki?
Its Ki is 58 nM.
